According to patent US20140057915A1, “KINASE INHIBITORS” (TOPIVERT PHARMA LIMITED, priority 2012, published 2014):

Assays:
cSrc = cSrc (Homo sapiens, UniProt P12931); assay: c-Src enzyme inhibition (FRET); assay type: biochemical; conditions: Table 4a1
Outline: (§1)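 2 hr RT enzyme + cpd (added solns 4/0.4/0.04/0.004 μg/mL); + FRET peptide (8 μM soln) + ATP soln (c-Src 800 μM, Syk 60 μM), 1 hr; protease development 1 hr; read donor/acceptor emission ratio.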

Syk = Syk (Homo sapiens, UniProt P43405); assay: Syk enzyme inhibition (FRET); assay type: biochemical; conditions: Table 4a1
Outline: as §1

GSK3α = GSK3α (Homo sapiens, UniProt P49840); assay: GSK 3α enzyme inhibition (FRET), Method 1; assay type: biochemical; conditions: Table 4a1
GSK3α, sequence (P49840 whole entry): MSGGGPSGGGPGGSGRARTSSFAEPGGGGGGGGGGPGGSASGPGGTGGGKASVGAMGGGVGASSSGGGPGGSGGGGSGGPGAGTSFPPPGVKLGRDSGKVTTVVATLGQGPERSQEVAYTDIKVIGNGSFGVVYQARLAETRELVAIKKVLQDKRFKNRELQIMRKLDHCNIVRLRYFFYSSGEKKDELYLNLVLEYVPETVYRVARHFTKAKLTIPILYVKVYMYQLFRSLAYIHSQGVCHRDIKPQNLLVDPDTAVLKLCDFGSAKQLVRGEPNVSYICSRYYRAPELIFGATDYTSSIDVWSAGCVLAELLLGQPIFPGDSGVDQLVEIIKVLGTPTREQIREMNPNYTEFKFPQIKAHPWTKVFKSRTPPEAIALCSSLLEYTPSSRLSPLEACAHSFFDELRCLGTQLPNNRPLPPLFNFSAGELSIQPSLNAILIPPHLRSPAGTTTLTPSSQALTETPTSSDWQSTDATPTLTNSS
Outline: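 GSK3α was preincubated with test compound for 2 hr at RT, then a FRET peptide substrate and ATP were added for 1 hr. Protease development for 1 hr cleaved only non-phosphorylated peptide, and phosphorylation was read as the coumarin/fluorescein emission ratio. Concentrations given are those of the added solutions: enzyme 500 ng/mL, peptide 8 μM, ATP 40 μM.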

[1] = tested on: TNFα release, d-U937 cells; assay: LPS-induced TNFα release in d-U937 cells; assay type: cell-based; conditions: Homo sapiens, dU937; relative to 10 μg/mL BIRB796; Table 4c1; read-out: LPS Induced Release of Cytokine in d-U937 Cells, TNFα REC50
Outline: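 Sandwich ELISA quantifies cytokine in supernatants after 4 hr LPS challenge (0.1 μg/mL) of PMA-differentiated (100 ng/mL, 48–72 hr) U937 macrophages given compound 2 hr beforehand. REC50 derived from concentration-response curve, inhibition calculated relative to vehicle.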

[2] = tested on: IL-8 release, d-U937 cells; assay: LPS-induced IL-8 release in d-U937 cells; assay type: cell-based; conditions: Homo sapiens, dU937; Table 4c1; read-out: LPS Induced Release of Cytokine in d-U937 Cells, IL-8 IC50
Outline: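 IL-8 release after a 4 hr challenge with LPS (0.1 μg/mL, E. coli 0111:B4) following a 2 hr compound pretreatment. Cells were human U937 monocytes differentiated to macrophage-type with PMA 100 ng/mL for 48–72 hr. Relative 50% effective concentration derived from concentration–response data.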

[3] = tested on: ICAM-1 expression, BEAS2B cells; assay: Poly I:C-induced ICAM-1 expression in BEAS2B cells; assay type: cell-based; conditions: Homo sapiens, BEAS-2B; read-out: Poly IC induced ICAM1 in BEAS2B, IC50
Outline: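 Cell-based ELISA for surface ICAM-1 in human BEAS2B cells 18 h after transfection with the RNA-virus mimic poly I:C (1 μg/mL, with Oligofectamine), compounds added 2 h beforehand. OD450–655 divided by Crystal Violet OD595 per well; percent inhibition relative to vehicle.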

d-U937 cells = assay: Cell viability: MTT assay; assay type: cell-based, human; conditions: 1 μg/mL
Outline: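 MTT reduction (1 h, DMSO solubilisation, A550) measured after compound treatment at 1 or 10 μg/mL of differentiated U937 cells for 4 h (5% FCS RPMI1640) or 24 h (10% FCS). Percentage viability loss computed relative to 0.5% DMSO vehicle, with increases tabulated as negative values.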

cSrc, sequence (P12931 whole entry): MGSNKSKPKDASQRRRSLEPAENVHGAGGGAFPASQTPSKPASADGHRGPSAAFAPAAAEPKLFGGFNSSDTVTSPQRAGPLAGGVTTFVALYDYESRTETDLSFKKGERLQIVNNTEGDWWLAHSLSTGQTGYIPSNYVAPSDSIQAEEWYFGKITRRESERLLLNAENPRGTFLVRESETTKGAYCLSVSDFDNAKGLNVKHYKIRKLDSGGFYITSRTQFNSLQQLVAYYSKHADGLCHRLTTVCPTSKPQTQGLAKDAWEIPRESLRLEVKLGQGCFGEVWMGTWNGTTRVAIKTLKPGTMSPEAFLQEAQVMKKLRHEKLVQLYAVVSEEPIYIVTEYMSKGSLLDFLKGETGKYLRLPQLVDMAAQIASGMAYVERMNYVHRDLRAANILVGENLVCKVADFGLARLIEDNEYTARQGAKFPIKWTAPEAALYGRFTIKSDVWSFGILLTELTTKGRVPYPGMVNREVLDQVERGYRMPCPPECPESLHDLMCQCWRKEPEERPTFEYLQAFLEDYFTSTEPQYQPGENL

| Compound | IC50 (cSrc) | IC50 (Syk) | IC50 (GSK3α) | EC50 [1] | IC50 [2] | IC50 [3] | Cell viability at time point in d-U937 cells, 4 h (d-U937 cells) | Cell viability at time point in d-U937 cells, 24 h (d-U937 cells) |
| --- | --- | --- | --- | --- | --- | --- | --- | --- |
| COc1cc(C(=O)NCCN2CCOCC2)ccc1Nc1nccc(Oc2ccc(NC(=O)Nc3cc(C(C)(C)C)nn3-c3ccc(C)cc3)c3ccccc23)n1 [Example 37, 4-((4-((4-(3-(3-(tert-butyl)-1-(p-tolyl)-1H-pyrazol-5-yl)ureido)naphthalen-1-yl)oxy)pyrimidin-2-yl)amino)-3-methoxy-N-(2-morpholinoethyl)benzamide] | 27 nM | 149 nM | > 13000 nM | 3.7 nM | 24.1 nM | 19.6 nM | −ve (−ve and +ve indicate that the value is below and above respectively, the no significant effect threshold, defined as 30% inhibition at 1 μg/mL at the time point indicated) | −ve (−ve and +ve indicate that the value is below and above respectively, the no significant effect threshold, defined as 30% inhibition at 1 μg/mL at the time point indicated) |
| Cc1ccc(-n2nc(C3(C)COC3)cc2NC(=O)Nc2ccc(Oc3ccnc(Nc4cccc(C(=O)NCCN5CCOCC5)c4)n3)c3ccccc23)cc1 [Example 22, 3-((4-((4-(3-(3-(3-methyloxetan-3-yl)-1-(p-tolyl)-1H-pyrazol-5-yl)ureido)naphthalen-1-yl)oxy)pyrimidin-2-yl)amino)-N-(2-morpholinoethyl)benzamide] | < 1 nM | 292 nM | 930 nM | 4.5 nM | 1.3 nM | 4.1 nM | −ve (−ve and +ve indicate that the value is below and above respectively, the no significant effect threshold, defined as 30% inhibition at 1 μg/mL at the time point indicated) | −ve (−ve and +ve indicate that the value is below and above respectively, the no significant effect threshold, defined as 30% inhibition at 1 μg/mL at the time point indicated) |
| COc1ccc(-n2nc(C(C)C)cc2NC(=O)Nc2ccc(Oc3ccnc(Nc4cc(C(=O)NCCO)ccc4OC)n3)c3ccccc23)cc1 [Example 34, N-(2-hydroxyethyl)-3-((4-((4-(3-(3-isopropyl-1-(4-methoxyphenyl)-1H-pyrazol-5-yl)ureido)naphthalen-1-yl)oxy)pyrimidin-2-yl)amino)-4-methoxybenzamide] | 2 nM | 85 nM | > 14200 nM | 14.2 nM | 73.5 nM | 79.9 nM | +ve (−ve and +ve indicate that the value is below and above respectively, the no significant effect threshold, defined as 30% inhibition at 1 μg/mL at the time point indicated) | −ve (−ve and +ve indicate that the value is below and above respectively, the no significant effect threshold, defined as 30% inhibition at 1 μg/mL at the time point indicated) |
| COc1cc(C(=O)NCCN(C)C)ccc1Nc1nccc(Oc2ccc(NC(=O)Nc3cc(C(C)C)nn3-c3ccc(C)cc3)c3ccccc23)n1 [Example 35, N-(2-(dimethylamino)ethyl)-4-((4-((4-(3-(3-isopropyl-1-(p-tolyl)-1H-pyrazol-5-yl)ureido)naphthalen-1-yl)oxy)pyrimidin-2-yl)amino)-3-methoxybenzamide] | < 1 nM | 30 nM | > 14000 nM | 27.8 nM | 3.2 nM | 140 nM | −ve (−ve and +ve indicate that the value is below and above respectively, the no significant effect threshold, defined as 30% inhibition at 1 μg/mL at the time point indicated) | −ve (−ve and +ve indicate that the value is below and above respectively, the no significant effect threshold, defined as 30% inhibition at 1 μg/mL at the time point indicated) |
| Cc1ccc(-n2nc(C(C)(C)C)cc2NC(=O)Nc2ccc(Oc3ccnc(Nc4cccc(C(=O)NCCN5CCOCC5)c4)n3)c3ccccc23)cc1 [Example 3, 3-((4-((4-(3-(3-(tert-Butyl)-1-(p-tolyl)-1H-pyrazol-5-yl)ureido)naphthalen-1-yl)oxy)pyrimidin-2-yl)amino)-N-(2-morpholinoethyl)benzamide] | 1 nM | 11 nM | 286 nM | 0.6 nM | 1.6 nM | 0.7 nM | −ve (−ve and +ve indicate that the value is below and above respectively, the no significant effect threshold, defined as 30% inhibition at 1 μg/mL at the time point indicated) | −ve (−ve and +ve indicate that the value is below and above respectively, the no significant effect threshold, defined as 30% inhibition at 1 μg/mL at the time point indicated) |
| COc1ccc(-n2nc(C(C)C)cc2NC(=O)Nc2ccc(Oc3cc(Nc4cc(OC)cc(C(=O)NCCN5CCOCC5)c4)ncn3)c3ccccc23)cc1 [Example 14, 3-((6-((4-(3-(3-isopropyl-1-(4-methoxyphenyl)-1H-pyrazol-5-yl)ureido)naphthalen-1-yl)oxy)pyrimidin-4-yl)amino)-5-methoxy-N-(2-morpholinoethyl)benzamide] | 4 nM | > 1300 nM | 355 nM | 1.2 nM | 5 nM | 3 nM | −ve (−ve and +ve indicate that the value is below and above respectively, the no significant effect threshold, defined as 30% inhibition at 1 μg/mL at the time point indicated) | +ve (−ve and +ve indicate that the value is below and above respectively, the no significant effect threshold, defined as 30% inhibition at 1 μg/mL at the time point indicated) |
| COc1ccc(C(=O)NCCO)cc1Nc1nccc(Oc2ccc(NC(=O)Nc3cc(C(C)C)nn3-c3ccc(C)cc3)c3ccccc23)n1 [Example 32, N-(2-hydroxyethyl)-3-((4-((4-(3-(3-isopropyl-1-(p-tolyl)-1H-pyrazol-5-yl)ureido)naphthalen-1-yl)oxy)pyrimidin-2-yl)amino)-4-methoxybenzamide] | < 2 nM | 152 nM | > 14600 nM | 3.1 nM | 17.1 nM | 86.7 nM | −ve (−ve and +ve indicate that the value is below and above respectively, the no significant effect threshold, defined as 30% inhibition at 1 μg/mL at the time point indicated) | −ve (−ve and +ve indicate that the value is below and above respectively, the no significant effect threshold, defined as 30% inhibition at 1 μg/mL at the time point indicated) |
| COc1ccc(C(=O)NCCN2CCOCC2)cc1Nc1nccc(Oc2ccc(NC(=O)Nc3cc(C(C)(C)C)nn3-c3ccc(C)cc3)c3ccccc23)n1 [Example 31, 3-((4-((4-(3-(3-(tert-butyl)-1-(p-tolyl)-1H-pyrazol-5-yl)ureido)naphthalen-1-yl)oxy)pyrimidin-2-yl)amino)-4-methoxy-N-(2-morpholinoethyl)benzamide] | 3 nM | 51 nM | 9630 nM | 2.8 nM | 7.1 nM | 12 nM | −ve (−ve and +ve indicate that the value is below and above respectively, the no significant effect threshold, defined as 30% inhibition at 1 μg/mL at the time point indicated) | −ve (−ve and +ve indicate that the value is below and above respectively, the no significant effect threshold, defined as 30% inhibition at 1 μg/mL at the time point indicated) |
